Laboratory results as given in patent EP1923473B1, “Bis-diglycolamides (BISDGA) as new extractants for lanthanides [Ln(III)] and actinides [An(III)] from aqueous high-level wastes” (Universidad Autónoma de Madrid, priority 2006, dated 2008).

Assays:
Type in all cases: physicochemical
[1] = Hydrolytic stability, extraction capability after contact with 3 mol/L nitric acid; settings: 0.1 mol/L in n-dodecane/1-octanol (95:5)%vol; for extraction capability of Eu (III) (DEu): during the different contact time periods with 3 mol/L nitric acid
Experimental: The organic solutions of the compounds to be tested were prepared and equilibrated with 3 mol/L nitric acid, as has been indicated in sections A) and B).
Then, 700 µL of the equilibrated organic phase were put in vials of an approximate volume of 2 mL and were contacted with 700 µL of 3 mol/L nitric acid. They were stirred vigorously in an oscillating shaker for periods of 7, 15, 24, 36, 42, 50 and 66 days. After each permanent contact period with the nitric acid aqueous phase, the extraction capability of the organic solution was evaluated, taking 600 µL of the corresponding organic phase and contacting it with 600 µL of aqueous phase formed by a 3 mol/L nitric acid solution spiked with 600 Bq of ^152Eu and with 600 Bq of ^241Am. It was stirred vigorously by means of an oscillating shaker for 15 minutes. The separation of the phases was carried out by centrifugation at 5000 rpm. 400 µL of each of the phases were taken for the determination of the concentration of ^152Eu and ^241Am, as in section C).
After the permanent contact periods with the 3 mol/L nitric acid solution, the extraction capability of the organic solutions of both compounds was evaluated with 3 mol/L nitric acid solutions containing 600 Bq of ^152 Eu and 600 Bq of ^241Am.

[2] = Loading capacity (limiting organic concentration); settings: 0.2 mol/L in TPH/1-octanol (95:5)%vol; 3 mol/L nitric acid
Experimental: The organic solutions were prepared and equilibrated with 3 mol/L nitric acid as detailed in the previously described sections A) and B.
Aqueous solutions of 3 mol/L nitric acid, spiked with 600 Bq of ^152Eu and 600 Bq of ^241Am, containing different amounts of stable Eu(III) (0.004 mol/L, 0.008 mol/L, 0.016 mol/L, 0.032 mol/L, 0.064 mol/L and 0.128 mol/L), obtained dissolving the corresponding amount of Eu (NO3)3·6H2O salt in 3 mol/L nitric acid, were prepared.
600 µL of equilibrated organic phase were contacted with 600 µL of aqueous phase of the corresponding concentration of Eu(III). It was stirred vigorously by means of an oscillating shaker for 15 minutes. The phases were separated by centrifugation at 5000 rpm and 400 µL of each of the phases were taken for the determination of the concentration of ^152Eu and ^241Am, as described previously in section C).
The loading capacity was determined according to the limiting organic concentration or LOC, which is the highest concentration of metal admitted by the organic phase before the third phase appears, as a result of the organic phase separating into two phases: a light or less heavy phase formed mainly by the organic solvent and a heavy phase formed by the complex formed by the extractant and the metal. […]

[3] = Batch extraction from simulated HLLW from the PUREX process; settings: for Distribution coefficients Sr: 0.1 mol/L in TPH/1-octanol (90:10)
Experimental: The feed solution used for the extraction tests is a simulated solution of an HLLW from the PUREX process, the composition of which is shown in Table 4. Table 4: Composition of the simulated HLLW-PUREX solution used for the extraction tests
The composition of the HLLW corresponds to a burn-up of 33 GWd/tHM, the generated volume of HLLW being 5000 1/t of fuel. […] Oxalic acid and N-(2-hydroxyethyl)ethylenediaminotriacetate (HEDTA) were also added before the extraction tests.
The concentrations of the stable elements were determined by mass spectrometry with an inductively coupled plasma source (ICP-MS) in a DRC Elan 6100 device of Perkin Elmer Sciex. The aqueous phase was measured directly after the appropriate dilution. The organic phase was analyzed after having mineralized the organic matter by microwave acid digestion and subsequent dilution.
The distribution coefficients were calculated for each element according to section C).
(§1) Extraction experiments were carried out with said simulated HLLW in a pure form and also adding oxalic acid and HEDTA to it.
as §1

[4] = Extraction capability at different nitric acid concentrations in the aqueous phase; settings: 0.1 mol/L in 1-octanol or TPH/1-octanol mixtures
Experimental: The organic solutions were prepared as indicated previously in section A). The aqueous solutions consisted of nitric acid solutions at different concentrations (0.06 mol/L, 0.11 mol/L, 0.65 mol/L, 1.0 mol/L, 3.1 mol/L and 6.7 mol/L) each of them spiked with 600 Bq of ^152Eu and 600 Bq of ^241Am. The nitric acid concentration of these solutions was determined by a potentiometric titration before and after the extraction equilibrium.
The organic solutions of the compound to be studied were equilibrated with the corresponding aqueous solution, according to the different nitric acid concentrations considered, as indicated previously in section B).
600 µL of equilibrated organic phase were contacted with 600 µL of the aqueous phase of the corresponding nitric acid concentration. […]
The influence of the concentration of aqueous nitric acid of the aqueous phase, from 0.05 mol/L to 7 mol/L, on the extraction of Am/Eu with compound 4 was studied in different TPH/1-octanol mixtures as solvent, and also in 100% 1-octanol. To that end, the distribution coefficients of Am(III) and Eu(III) were determined for compound 4 dissolved at 0.1 mol/L in 1-octanol and in the following TPH/1-octanol mixtures: 50:50, 75:25 and 90:10 by volume, for the following nitric acid concentrations of the solution containing Am(III)/Eu(III): 0.06 mol/L; 0.11 mol/L; 0.65 mol/L; 1.0 mol/L; 3.1 mol/L and 6.7 mol/L. […]

Row | Substance | DAm ([1]; after 42 days of permanent contact with 3 mol/L nitric acid) | extraction capability of Eu (III) (DEu) [1] | LOCEu [2] | factor by which the Sr distribution coefficient is lower than that obtained with TODGA [3] | Dsr ([3]; 0.1 mol/L in TPH/1-octanol (90:10)%vol, summary of all conditions) | Distribution coefficients Sr ([3]; Oxalic acid 0.2 mol/L, HEDTA 0.05 mol/L, TBP 0.5 mol/L) | Distribution coefficients Sr ([3]; Oxalic acid 0.2 mol/L, HEDTA 0.05 mol/L, TBP No) | Distribution coefficients Sr ([3]; Oxalic acid 0.3 mol/L, HEDTA 0.05 mol/L, TBP 0.5 mol/L) | Distribution coefficients Sr ([3]; Oxalic acid 0.3 mol/L, HEDTA 0.05 mol/L, TBP No) | Distribution coefficients Sr ([3]; Oxalic acid No, HEDTA No, TBP 0.5 mol/L) | Distribution coefficients Sr ([3]; Oxalic acid No, HEDTA No, TBP No) | DAm ([1]; after 66 days of permanent contact with 3 mol/L nitric acid) | extraction capability at diluted nitric acid concentrations [4]
1 | 2-Dioctylcarbamoylmethoxy-N-[3-[3-(2-dioctylcarbamoyl-methoxyacetylamino)propoxy]propyl]acetamide [Compound 18] | 280 | remains constant | ~ 0.06 mol/L | – | – | – | – | – | – | – | – | – | –
2 | 2-Dioctylcarbamoylmethoxy-N-[3-[(2-dioctylcarbamoyl-methoxy-acetylamino)methyl]benzyl]acetamide [Compound 4] | – | remains constant | ~ 0.03 mol/L | 10 | < 0.13 | 0.071 | 0.110 | 0.099 | 0.132 | 0.061 | 0.071 | 145 | very low
